Measurements: US20100267561A1, “HERBICIDAL PYRIDAZINONE DERIVATIVES” (priority 2007, published 2010)

Legend:
Type in all cases: in vivo
[1] = test system: ducksalad (Heteranthera limosa); assay: Test B flooded paddy test plant response; details: Heteranthera limosa, read-out: Plant response rating, Ducksalad
Procedure, shortened: (§1)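 Rice, umbrella sedge, ducksalad and barnyardgrass at 2-leaf stage; pots flooded to 3 cm, compounds applied into paddy water, depth held throughout. Greenhouse 13 to 15 days, then visual rating vs untreated controls on 0–100 scale (0 no effect, 100 complete control); dash means no test result.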

rice (Oryza sativa) = assay: Test B flooded paddy test plant response; details: Oryza sativa, read-out: Plant response rating, Rice
Procedure, shortened: as §1

[2] = test system: umbrella sedge (Cyperus difformis); assay: Test B flooded paddy test plant response; details: Cyperus difformis, read-out: Plant response rating, Sedge, Umbrella
Procedure, shortened: as §1

[3] = test system: Italian ryegrass (Lolium multiflorum); assay: Test C pre-/postemergence plant response; details: Preemergence
Procedure, shortened: (§2)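 Seeds are planted and sprayed preemergence, while established plants at the 1- to 4-leaf stage (2 to 18 cm) receive postemergence sprays of the same surfactant-containing, non-phytotoxic solvent formulation. After 15 to 25 days under controlled conditions, injury is scored visually from 0 (no effect) to 100 (complete control).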

[4] = test system: annual bluegrass (Poa annua); assay: Test C pre-/postemergence plant response; details: Preemergence
Procedure, shortened: as §2

[5] = test system: blackgrass (Alopecurus myosuroides); assay: Test C pre-/postemergence plant response; details: Preemergence
Procedure, shortened: as §2

[6] = test system: canarygrass (Phalaris minor); assay: Test C pre-/postemergence plant response; details: Preemergence
Procedure, shortened: as §2

[7] = test system: downy bromegrass (Bromus tectorum); assay: Test C pre-/postemergence plant response; details: Preemergence
Procedure, shortened: as §2

[8] = test system: green foxtail (Setaria viridis); assay: Test C pre-/postemergence plant response; details: Preemergence
Procedure, shortened: as §2

[9] = test system: pigweed (Amaranthus retroflexus); assay: Test C pre-/postemergence plant response; details: Preemergence
Procedure, shortened: as §2

[10] = test system: spring barley (Hordeum vulgare); assay: Test C pre-/postemergence plant response; details: Preemergence
Procedure, shortened: as §2

[11] = test system: spring wheat (Triticum aestivum); assay: Test C pre-/postemergence plant response; details: Preemergence
Procedure, shortened: as §2

[12] = test system: wild mustard (Sinapis arvensis); assay: Test C pre-/postemergence plant response; details: Preemergence, 31 g ai/ha; scale 0 to 100 (0 no effect, 100 complete control)
Procedure, shortened: as §2

wild oat (Avena fatua) = assay: Test C pre-/postemergence plant response; details: Preemergence
Procedure, shortened: as §2

[13] = test system: windgrass (Apera spica-venti); assay: Test C pre-/postemergence plant response; details: Preemergence, 62 g ai/ha; scale 0 to 100, 0 no effect, 100 complete control
Procedure, shortened: as §2

[14] = test system: winter barley (Hordeum vulgare); assay: Test C pre-/postemergence plant response; details: Preemergence
Procedure, shortened: as §2

[15] = test system: winter wheat (Triticum aestivum); assay: Test C pre-/postemergence plant response; details: Preemergence
Procedure, shortened: as §2

[16] = Flood (flooded paddy test), 62 g ai/ha, scale 0 to 100, 0 no effect, 100 complete control
[17] = Flood (flooded paddy test), 125 g ai/ha, scale 0 to 100, 0 no effect, 100 complete control
[18] = Flood (flooded paddy test), 250 g ai/ha, scale 0 to 100, 0 no effect, 100 complete control
[19] = Flood, 31 g ai/ha, scale 0 to 100
[20] = 8 g ai/ha, scale 0 to 100 (0 no effect, 100 complete control)
[21] = 16 g ai/ha, scale 0 to 100 (0 no effect, 100 complete control)
[22] = 31 g ai/ha, scale 0 to 100 (0 no effect, 100 complete control)
[23] = 62 g ai/ha, scale 0 to 100, 0 no effect, 100 complete control

In the case of Cc1cn(-c2ccc(Cl)cc2)nc1-c1c(O)cnn(C)c1=O [Compound 30, 4-[1-(4-chlorophenyl)-4-methyl-1H-pyrazol-3-yl]-5-hydroxy-2-methyl-3(2H)-pyridazinone], the pest or weed control at 62 g/ha [1, 16] is reported as 0%, the pest or weed control at 125 g/ha [1, 17] is reported as 0% and the pest or weed control at 250 g/ha [1, 18] is reported as 0%. For the same compound, the pest or weed control at 31 g/ha [1, 19] was 0%, the plant injury at 62 g/ha (rice (Oryza sativa); [16]) was 0% and the plant injury at 125 g/ha (rice (Oryza sativa); [17]) was 0%. The plant injury at 250 g/ha (rice (Oryza sativa); [18]) was 0%, the plant injury at 31 g/ha (rice (Oryza sativa); [19]) was 0% and the pest or weed control at 62 g/ha [2, 16] was 0%. It also gave a pest or weed control at 125 g/ha [2, 17] of 0%, a pest or weed control at 250 g/ha [2, 18] of 0% and a pest or weed control at 31 g/ha [2, 19] of 0%. The “Plant response rating, Ryegrass, Italian” value [3, 20] was 0, the “Plant response rating, Ryegrass, Italian” value [3, 21] was 30 and the “Plant response rating, Ryegrass, Italian” value [3, 22] was 60. The “Plant response rating, Ryegrass, Italian” value [3, 23] was 75, the “Plant response rating, Bluegrass” value [4, 20] was 0 and the “Plant response rating, Bluegrass” value [4, 21] was 0. For the same compound, the “Plant response rating, Bluegrass” value [4, 22] was 0, the “Plant response rating, Bluegrass” value [4, 23] was 0 and the “Plant response rating, Blackgrass” value [5, 20] was 0. For the same compound, the “Plant response rating, Blackgrass” value [5, 21] was 20, the “Plant response rating, Blackgrass” value [5, 22] was 90 and the “Plant response rating, Blackgrass” value [5, 23] was 98. For the same compound, the “Plant response rating, Canarygrass” value [6, 20] was 0, the “Plant response rating, Canarygrass” value [6, 21] was 0 and the “Plant response rating, Canarygrass” value [6, 22] was 65. For the same compound, the “Plant response rating, Canarygrass” value [6, 23] was 90, the “Plant response rating, Bromegrass, Downy” value [7, 20] was 0 and the “Plant response rating, Bromegrass, Downy” value [7, 21] was 0. For the same compound, the “Plant response rating, Bromegrass, Downy” value [7, 22] was 0, the “Plant response rating, Bromegrass, Downy” value [7, 23] was 0 and the “Plant response rating, Foxtail, Green” value [8, 20] was 10. The “Plant response rating, Foxtail, Green” value [8, 21] was 25, the “Plant response rating, Foxtail, Green” value [8, 22] was 80 and the “Plant response rating, Foxtail, Green” value [8, 23] was 100. The “Plant response rating, Pigweed” value [9, 20] was 0, the “Plant response rating, Pigweed” value [9, 21] was 0 and the “Plant response rating, Pigweed” value [9, 22] was 0. For the same compound, the “Plant response rating, Pigweed” value [9, 23] was 0, the “Plant response rating, Barley, Spring” value [10, 20] was 0 and the “Plant response rating, Barley, Spring” value [10, 21] was 0. For the same compound, the “Plant response rating, Barley, Spring” value [10, 22] was 30, the “Plant response rating, Barley, Spring” value [10, 23] was 50 and the “Plant response rating, Wheat, Spring” value [11, 20] was 0. For the same compound, the “Plant response rating, Wheat, Spring” value [11, 21] was 0, the “Plant response rating, Wheat, Spring” value [11, 22] was 0 and the “Plant response rating, Wheat, Spring” value [11, 23] was 20. For the same compound, the “Plant response rating, Mustard, Wild” value [12] was 0, the “Plant response rating, Oat, Wild” value (wild oat (Avena fatua); [20]) was 0 and the “Plant response rating, Oat, Wild” value (wild oat (Avena fatua); [21]) was 0. The “Plant response rating, Oat, Wild” value (wild oat (Avena fatua); [22]) was 30, the “Plant response rating, Oat, Wild” value (wild oat (Avena fatua); [23]) was 40 and the “Plant response rating, Windgrass” value [13] was 35. For the same compound, the “Plant response rating, Barley, Winter” value [14, 20] was 0, the “Plant response rating, Barley, Winter” value [14, 21] was 0 and the “Plant response rating, Barley, Winter” value [14, 22] was 0. The “Plant response rating, Barley, Winter” value [14, 23] was 15, the “Plant response rating, Wheat, Winter” value [15, 20] was 0 and the “Plant response rating, Wheat, Winter” value [15, 21] was 0. The “Plant response rating, Wheat, Winter” value [15, 22] was 0 and the “Plant response rating, Wheat, Winter” value [15, 23] was 0.
